Results reported in US9345669B2, “Biodegradable natural films based on co-products derived from industrial-scale seed-treatment processes” (Sojasun Technologies, priority 2011, dated 2016).

Test: Diffusion of isoflavones from films into an agar plate (gelose) matrix simulating the vaginal mucous membrane
Assay type: physicochemical
Source text: FIG. 1 is a flowchart pertaining to the protocol for evaluating the diffusion of isoflavones made out of films according to the invention towards a matrix simulating the vaginal mucous membrane;
The films according to the present invention meeting the formulations 1 to 6 described here above were associated with an extract obtained from soybeans. The extract is incorporated directly into the mixture so that its content is 4.2% by mass. This extract has the particular feature of being rich in isoflavones and especially having high daidzin and genistin content.
The tests explained here below show the possible use of films according to the invention for making products for administering active ingredients by diffusion of these ingredients from the film towards the vaginal mucous membrane.
In these tests, in order to model the vaginal mucous membrane, an agar plate with an Agar concentration of 30 g/l was used.
The diffusion of daidzin and genistin in the lower agar plate and the upper agar plate was studied with films complying with the formulations 1, 2 and 3 described here above. The results of this study are indicated in the two graphs of FIG. 2.
The influence of the proportion by weight of film-forming agent (sodium caseinate (NaCAS)) in films according to the invention meeting the formulations 5, 2 and 4 described here above on the diffusion of daidzin (a) and genistin (b) has also been studied. The results of this study are indicated in the two graphs shown in FIG. 3 in which the concentration in isoflavones diffused has been related in terms of percentage to the case where the entire active ingredient would have been diffused.
The hydrophobic agent chosen for this study is soy lecithin. A suspension of this compound was also prepared using 5 g of soy lecithin powder mixed with 10 mL of ultra-pure water. The films complying with the formulations 1 and 2 were then coated with this suspension (on the upper and lower faces) and then placed on gelose in order to carry out migration tests.
Two rates of plasticization were examined, corresponding to the formulations 4 and 5 of the films according to the invention described here above.

## Daidzin
Films of formulations 1, 2 and 3 with 4.2% soybean extract, agar 30 g/l (FIG. 2)
  concentration in gelose under equilibrium: about 10 μg/mL
Films of formulations 5, 2 and 4 (varied proportion of sodium caseinate), % of total active ingredient (FIG. 3)
  isoflavone diffused towards the gelose after 24 hours of contact: more than 90%
Formulations 1 and 2 coated with soy lecithin on upper and lower faces (FIG. 4)
  isoflavone diffused in the gelose after 48 hours of contact, with soy lecithin coating: 40%
Plasticization rate 20% glycerol (FIG. 5)
  isoflavone diffused after 30 hours, plasticization rate 20%: 90%
Plasticization rate 30% glycerol (FIG. 5)
  isoflavone diffused after 30 hours, glycerol rate 30% by mass: ~100%
